Read-outs that look alike come from different tables or passages of the source.
Assays:
[1] = test system: MCT-induced PAH and RV dysfunction; experiment: Monocrotaline (MCT)-induced chronic PAH and RV dysfunction model in rats; assay type: in vivo, Male Sprague-Dawley rats; details: for RV hypertrophy, RV(milligrams)/LV(milligrams) / plasma BNP levels / decrease in RV ejection fraction: day 28; for RV hypertrophy, RV(milligrams)/LV(milligrams): MCT 0.55±0.04; for plasma BNP levels: MCT 590±106, control 170±90; for decrease in RV ejection fraction: MCT −47±7%; for pulmonary systolic pressure: MCT 84±7, control 29±1; for RV systolic pressure: MCT 86±7, control 26±1
Description: As is discussed in detail hereinabove, ranolazine is an anti-anginal drug that inhibits the late sodium current (INa) in cardiomyocytes. Late INa is increased during conditions of ischemia and hypoxia, and causes intracellular Ca^2+ overload by increasing the amount of intracellular Na^+ available for exchange via the Na^+—Ca^2+ exchanger (NCX). […] Monocrotaline or MCT (a poisonous crystalline alkaloid found in a leguminous plant of the genus Crotalaria) induces progressive pulmonary arterial hypertension (PAH) in rats that results in RV hypertrophy, contractile dysfunction, and eventually RV failure. Both human PAH and MCT-induced PAH models are characterized by hypoxia and increased ROS production but the role of late INa in this model has not been investigated. Therefore, the present example evaluates the efficacy of RAN to prevent MCT-induced PAH and RV dysfunction. Male Sprague-Dawley rats were given a single injection of MCT (60 milligrams per kilogram, s.c.) at study inception and randomized into three groups; MCT, low dose RAN (0.25% weight of RAN over weight of chow), and high dose (0.5% weight of RAN over weight of chow) RAN. RAN was given in diet for 28 days mixed in standard rodent chow containing 0.25% or 0.5% RAN for low and high doses, respectively. These concentrations of RAN yielded plasma concentrations of 1-2 micromolar and 5-7 micromolar, respectively. A control group received a sub-cutaneous (s.c.) saline injection and was fed standard rodent chow. Pulmonary hemodynamics, RV function, and RV hypertrophy was assessed at endpoint (day 28 following MCT administration). Alpha-smooth muscle actin (α-SMA) staining on lung tissue sections were carried out to assess pulmonary vascular remodeling at day 28 as well.

[2] = Plasma concentration of RAN given in diet to rats; assay type: in vivo; details: male, Sprague-Dawley, oral, rat, read-out: plasma concentrations
Description: Male Sprague-Dawley rats were given a single injection of MCT (60 milligrams per kilogram, s.c.) at study inception and randomized into three groups; MCT, low dose RAN (0.25% weight of RAN over weight of chow), and high dose (0.5% weight of RAN over weight of chow) RAN. RAN was given in diet for 28 days mixed in standard rodent chow containing 0.25% or 0.5% RAN for low and high doses, respectively. These concentrations of RAN yielded plasma concentrations of 1-2 micromolar and 5-7 micromolar, respectively. A control group received a sub-cutaneous (s.c.) saline injection and was fed standard rodent chow. Pulmonary hemodynamics, RV function, and RV hypertrophy was assessed at endpoint (day 28 following MCT administration). Alpha-smooth muscle actin (α-SMA) staining on lung tissue sections were carried out to assess pulmonary vascular remodeling at day 28 as well.

[3] = test system: pulmonary hypertension or PAH; experiment: Right ventricular function, exercise capacity and quality of life in patients with pulmonary hypertension or PAH; assay type: in vivo; details: contemplated result
Description: To ascertain the improvement in right ventricular function in patients suffering from pulmonary hypertension or pulmonary arterial hypertension (PAH), the following parameters are examined: • Exercise capacity and quality of life • RV subendocardial perfusion using adenosine cardiac MRI studies • Exercise-induced changes in RV function determined non-invasively using comprehensive Doppler and tissue Doppler echocardiography along with determination of right ventricular—pulmonary vascular coupling and pulmonary vascular impedance spectra • RV contractility and comprehensive pressure-volume analysis using invasive hemodynamics, 2D and 3D echocardiography, and cardiac MRI Note that the aforementioned endpoints use a combination of invasive and non-invasive techniques. Echocardiography techniques are best suited for exercise studies. Echocardiographic RV volume data can be normalized to MRI RV volume data, and echocardiographic estimation of RV pressures can be normalized to invasive RV pressure data, thereby increasing the accuracy of echocardiographic analysis of RV structure and function.

[4] = test system: right ventricular remodeling following acute myocardial infarction; experiment: Murine model of large anterior wall acute myocardial infarction (permanent ligation of the left coronary artery); assay type: in vivo, Male Imprinting Control Region (ICR) mice; details: 30 mg/kg i.p. every 6 hours for 7 days
Experimental: Male Imprinting Control Region (ICR) mice underwent permanent coronary artery ligation of the left coronary artery and treated with vehicle (saline) or ranolazine 30 mg/kg i.p. every 6 hours (N=10-12 per group) for 7 days starting at the time of ligation. Infarct size was measured early using Masson's trichrome staining. Transthoracic echocardiography was performed prior to surgery and 7 days later to measure left ventricular and right ventricular dimensions and function.

[5] = high dose RAN (0.5% in chow), day 28 after MCT
[6] = echocardiography at day 7, versus vehicle-treated mice

SMILES: COc1ccccc1OCC(O)CN1CCN(CC(=O)Nc2c(C)cccc2C)CC1 (racemic) [ranolazine, ±-N-(2,6-dimethylphenyl)-4-[2-hydroxy-3-(2-methoxyphenoxy)-propyl]-1-piperazineacetamide]
- MCT induced changes (PAH and RV dysfunction), overall ([1]; 0.25% and 0.5% RAN in chow, 28 days): significantly and dose-dependently attenuated
- RV hypertrophy, RV(milligrams)/LV(milligrams) ([1]; high dose RAN (0.5% in chow)): 0.32±0.03
- plasma BNP levels ([1]; high dose RAN (0.5% in chow)): 60±20 picograms/milliliter
- decrease in RV ejection fraction ([1]; high dose RAN (0.5% in chow)): −10±8%
- pulmonary systolic pressure [1, 5]: 40±4 millimeters Hg
- RV systolic pressure [1, 5]: 39±4 millimeters Hg
- RV hypertrophy, RV(milligrams)/LV(milligrams) ([1]; low dose RAN (0.25% in chow)): 0.4±0.03
- plasma BNP levels ([1]; low dose RAN (0.25% in chow)): 180±30 picograms/milliliter
- decrease in RV ejection fraction ([1]; low dose RAN (0.25% in chow)): −17±11%
- pulmonary systolic pressure ([1]; low dose RAN (0.25% in chow), day 28 after MCT 60 mg/kg s.c.): 59±5 millimeters Hg
- RV systolic pressure ([1]; low dose RAN (0.25% in chow), day 28 after MCT): 58±5 millimeters Hg
- pulmonary vascular remodeling in intra-acinar arteries (ratio of vessel wall thickness to lumen diameter) ([1]; α-SMA staining of lung sections, day 28, compared to MCT animals): significantly reduced remodeling
- concentration at 28 days ([2]; 0.25 % weight of RAN over weight of chow, low dose RAN, 0.25% in chow): 1 to 2 µM
- concentration at 28 days ([2]; 0.5 % weight of RAN over weight of chow, high dose RAN, 0.5% in chow): 5 to 7 µM
- exercise capacity and quality of life [3]: improve exercise capacity and quality of life
- pain associated with pulmonary hypertension or PAH [3]: ameliorates pain
- infarct size ([4]; Masson's trichrome staining): absence of any measurable effects
- LV function and dimension ([4]; echocardiography at day 7): absence of any measurable effects
- RV dimension (RV diastolic and systolic areas) [4, 6]: significant preservation
- RV function (TAPSE and RV fractional area change) [4, 6]: significant preservation
